PubChem BioAssay (NCI)
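Method: 48-hour compound exposure of cells in 96-well plates, five concentrations, linear interpolation of endpoints. GI50 = concentration required for 50% inhibition of growth. TGI: total growth inhibition.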

Assays:
Experiment in all cases: growth of human tumour cells (NCI), 48 h
CCRF-CEM leukemia = system: CCRF-CEM leukemia
HS 578T breast = system: HS 578T breast
M14 melanoma = system: M14 melanoma
MCF7 breast = system: MCF7 breast
NCI-H226 lung = system: NCI-H226 lung
NCI-H522 lung = system: NCI-H522 lung
SF-295 CNS = system: SF-295 CNS
SK-MEL-28 melanoma = system: SK-MEL-28 melanoma
SN12C renal = system: SN12C renal
T-47D breast = system: T-47D breast

SMILES	GI50 (CCRF-CEM leukemia)	TGI (CCRF-CEM leukemia)	GI50 (HS 578T breast)	TGI (HS 578T breast)	GI50 (M14 melanoma)	TGI (M14 melanoma)	GI50 (MCF7 breast)	TGI (MCF7 breast)	GI50 (NCI-H226 lung)	TGI (NCI-H226 lung)	GI50 (NCI-H522 lung)	TGI (NCI-H522 lung)	GI50 (SF-295 CNS)	TGI (SF-295 CNS)	GI50 (SK-MEL-28 melanoma)	TGI (SK-MEL-28 melanoma)	GI50 (SN12C renal)	TGI (SN12C renal)	GI50 (T-47D breast)	TGI (T-47D breast)
CNCCNc1nc2ccccc2c2c(=O)c3cc(F)ccc3sc12	1.68 µM	3.36 µM	2 µM	4.79 µM	1.64 µM	3.07 µM	1.67 µM	3.31 µM	1.8 µM	3.76 µM	1.66 µM	3.42 µM	1.82 µM	3.4 µM	1.85 µM	3.38 µM	1.61 µM	3.29 µM	1.8 µM	4.12 µM
N=c1ccc2nc3c(cc(N)c4ccccc43)oc-2c1	0.546 µM	3.28 µM	0.201 µM	0.622 µM	0.164 µM	0.338 µM	0.162 µM	0.342 µM	0.386 µM	1.63 µM	0.19 µM	0.501 µM	0.199 µM	0.599 µM	1.19 µM	2.54 µM	0.253 µM	0.801 µM	1.09 µM	2.79 µM
NC(=S)N/N=C1\CCCC1C(O)(C(F)(F)Cl)C(F)(F)Cl (stereo not given)	–	> 10 µM	–	> 10 µM	–	> 10 µM	–	> 10 µM	–	> 10 µM	–	> 10 µM	–	> 10 µM	–	> 10 µM	–	> 10 µM	–	> 10 µM
CNCCNc1nc2ccccc2c2c(=O)c3cc(OC)ccc3sc12	1.76 µM	3.46 µM	1.84 µM	4.33 µM	1.73 µM	3.23 µM	1.54 µM	3.1 µM	1.75 µM	3.61 µM	1.73 µM	3.56 µM	1.82 µM	3.36 µM	1.84 µM	3.34 µM	1.5 µM	2.96 µM	1.71 µM	3.66 µM
